Assay results from patent US20230338391A1, “TREATMENT FOR DEPRESSION” (TAKEDA PHARMACEUTICAL COMPANY LIMITED, priority 2020, published 2023).
Where two headings read alike, the source gives them in different places.

Experiment: Phase 1 SRD/multiple-rising dose (MRD, Part 2) plasma PK in healthy subjects
Format: in vivo, human
Conditions: for Vd/F: read-out: Vz/F
Description: The study was designed to assess the safety, tolerability, PK, and PD of COMPOUND A. A total of 88 subjects were enrolled in 6 SRD and 5 SRD/MRD cohorts (n=8 per cohort). The study was composed of 2 parts.
In Part 2 of the study (SRD/MRD cohorts), a single oral tablet dose of COMPOUND A (0.3, 1, 3, 6, or 9 mg) or matching placebo was administered on Day 1 followed by safety, tolerability, PK, and PD assessments. Study drug (at the same dose level) was then administered once daily (QD) for 13 days, on […]. Each cohort of 8 subjects (6 active: 2 placebo) were administered study drug sequentially to ensure adequate safety and tolerability before administering the next dose level. Neither sentinel nor staggered dosing was used for the SRD/MRD cohorts. Subjects were confined in the study unit for 21 days, from Check-in on Day −1 until 72 hours after the last dose of study drug.
For all cohorts in Parts 1 and 2, serial PK blood samples were collected pre- and post-dose on Day 1 to measure plasma concentrations of COMPOUND A and its metabolites. For all SRD/MRD cohorts in Part 2, urine samples were collected pre- and post-dose on Day 1 and post-dose on Day 18 to measure concentrations of COMPOUND A and its metabolites.
For Part 1 of the study, all 36 subjects who received COMPOUND A were included in the PK set. For Part 2 of the study, all 30 subjects who received COMPOUND A were included in the PK set.
Referring now to FIG. 3, mean plasma concentration-time profiles (linear and semilog scales) of COMPOUND A were determined on Day 18 following oral administration of COMPOUND A QD for 13 days.

[1] = 0.3 mg QD cohort, Study Day 1, mean
[2] = 1 mg QD cohort, Study Day 1, mean
[3] = 3 mg QD cohort, Study Day 1, mean
[4] = 6 mg QD cohort, Study Day 1, mean
[5] = 9 mg QD cohort, Study Day 1, mean
[6] = both sexes, human, plasma, oral, 0.3 mg QD cohort, Study Day 1, mean
[7] = both sexes, human, plasma, oral, 1 mg QD cohort, Study Day 1, mean
[8] = both sexes, human, plasma, oral, 3 mg QD cohort, Study Day 1, mean
[9] = both sexes, human, plasma, oral, 6 mg QD cohort, Study Day 1, mean
[10] = both sexes, human, plasma, oral, 9 mg QD cohort, Study Day 1, mean

Compound: CC1=CN2CCS(=O)(=O)N=C2C(c2ccc(OC3CCCCC3)cc2)=N1 [COMPOUND A, 9-[4-(Cyclohexyloxy)phenyl]-7-methyl-3,4-dihydropyrazino[2,1-c][1,2,4]thiadiazine 2,2-dioxide]
- CL/F [1]: 2.38 L/h
- t1/2z [1]: 37.1 h
- Cav, ss (0.3 mg QD, Study Day 18, mean): 6.27 ng/mL
- CL/F [2]: 2.35 L/h
- t1/2z [2]: 42.4 h
- Cav, ss (1 mg QD, Study Day 18, mean): 20.9 ng/mL
- CL/F [3]: 1.81 L/h
- t1/2z [3]: 52.6 h
- Cav, ss (3 mg QD, Study Day 18, mean): 81.1 ng/mL
- CL/F [4]: 3.25 L/h
- t1/2z [4]: 36.0 h
- Cav, ss (6 mg QD, Study Day 18, mean, n = 5): 122 ng/mL
- CL/F [5]: 2.17 L/h
- t1/2z [5]: 49.9 h
- Cav, ss (9 mg QD, Study Day 18, mean): 192 ng/mL
- AUC (both sexes, human, plasma, oral, 0.3 mg, 0.3 mg QD cohort, Study Day 1, mean, read-out: AUC24): 48 ng·h/mL
- Cmax (both sexes, human, plasma, oral, 0.3 mg, 0.3 mg QD cohort, Study Day 1, mean, read-out: Cmax): 2.93 ng/mL
- Tmax (both sexes, human, plasma, oral, 0.3 mg, 0.3 mg QD cohort, Study Day 1, median, read-out: tmax): 1.25 h
- AUC (both sexes, human, plasma, oral, 0.3 mg, 0.3 mg QD, Study Day 6, mean, read-out: AUC24): 51.8 ng·h/mL
- Cmax (both sexes, human, plasma, oral, 0.3 mg, 0.3 mg QD, Study Day 6, mean, read-out: Cmax): 3.07 ng/mL
- Tmax (both sexes, human, plasma, oral, 0.3 mg, 0.3 mg QD, Study Day 6, median, read-out: tmax): 1.5 h
- AUC (both sexes, human, plasma, oral, 0.3 mg, 0.3 mg QD, Study Day 18, mean, read-out: AUCτ): 151 ng·h/mL
- Cmax (both sexes, human, plasma, oral, 0.3 mg, 0.3 mg QD, Study Day 18, mean, read-out: Cmax, ss): 7.87 ng/mL
- Tmax (both sexes, human, plasma, oral, 0.3 mg, 0.3 mg QD, Study Day 18, median, read-out: tmax): 2.5 h
- AUC (both sexes, human, plasma, oral, 1 mg, 1 mg QD cohort, Study Day 1, mean, read-out: AUC24): 138 ng·h/mL
- Cmax (both sexes, human, plasma, oral, 1 mg, 1 mg QD cohort, Study Day 1, mean, read-out: Cmax): 7.82 ng/mL
- Tmax (both sexes, human, plasma, oral, 1 mg, 1 mg QD cohort, Study Day 1, median, read-out: tmax): 4 h
- AUC (both sexes, human, plasma, oral, 1 mg, 1 mg QD, Study Day 6, mean, read-out: AUC24): 162 ng·h/mL
- Cmax (both sexes, human, plasma, oral, 1 mg, 1 mg QD, Study Day 6, mean, read-out: Cmax): 10 ng/mL
- Tmax (both sexes, human, plasma, oral, 1 mg, 1 mg QD, Study Day 6, median, read-out: tmax): 1 h
- AUC (both sexes, human, plasma, oral, 1 mg, 1 mg QD, Study Day 18, mean, read-out: AUCτ): 503 ng·h/mL
- Cmax (both sexes, human, plasma, oral, 1 mg, 1 mg QD, Study Day 18, mean, read-out: Cmax, ss): 24.9 ng/mL
- Tmax (both sexes, human, plasma, oral, 1 mg, 1 mg QD, Study Day 18, median, read-out: tmax): 4.5 h
- AUC (both sexes, human, plasma, oral, 3 mg, 3 mg QD cohort, Study Day 1, mean, read-out: AUC24): 480 ng·h/mL
- Cmax (both sexes, human, plasma, oral, 3 mg, 3 mg QD cohort, Study Day 1, mean, read-out: Cmax): 28.7 ng/mL
- Tmax (both sexes, human, plasma, oral, 3 mg, 3 mg QD cohort, Study Day 1, median, read-out: tmax): 1.5 h
- AUC (both sexes, human, plasma, oral, 3 mg, 3 mg QD, Study Day 6, mean, read-out: AUC24): 594 ng·h/mL
- Cmax (both sexes, human, plasma, oral, 3 mg, 3 mg QD, Study Day 6, mean, read-out: Cmax): 34.7 ng/mL
- Tmax (both sexes, human, plasma, oral, 3 mg, 3 mg QD, Study Day 6, median, read-out: tmax): 1.54 h
- AUC (both sexes, human, plasma, oral, 3 mg, 3 mg QD, Study Day 18, mean, read-out: AUCτ): 1950 ng·h/mL
- Cmax (both sexes, human, plasma, oral, 3 mg, 3 mg QD, Study Day 18, mean, read-out: Cmax, ss): 100 ng/mL
- Tmax (both sexes, human, plasma, oral, 3 mg, 3 mg QD, Study Day 18, median, read-out: tmax): 4 h
- AUC (both sexes, human, plasma, oral, 6 mg, 6 mg QD cohort, Study Day 1, mean, read-out: AUC24): 767 ng·h/mL
- Cmax (both sexes, human, plasma, oral, 6 mg, 6 mg QD cohort, Study Day 1, mean, read-out: Cmax): 42 ng/mL
- Tmax (both sexes, human, plasma, oral, 6 mg, 6 mg QD cohort, Study Day 1, median, read-out: tmax): 5 h
- AUC (both sexes, human, plasma, oral, 6 mg, 6 mg QD, Study Day 6, mean, n = 5, read-out: AUC24): 784 ng·h/mL
- Cmax (both sexes, human, plasma, oral, 6 mg, 6 mg QD, Study Day 6, mean, read-out: Cmax): 50.2 ng/mL
- Tmax (both sexes, human, plasma, oral, 6 mg, 6 mg QD, Study Day 6, median, read-out: tmax): 5 h
- AUC (both sexes, human, plasma, oral, 6 mg, 6 mg QD, Study Day 18, mean, n = 5, read-out: AUCτ): 2930 ng·h/mL
- Cmax (both sexes, human, plasma, oral, 6 mg, 6 mg QD, Study Day 18, mean, n = 5, read-out: Cmax, ss): 148 ng/mL
- Tmax (both sexes, human, plasma, oral, 6 mg, 6 mg QD, Study Day 18, median, n = 5, read-out: tmax): 3.05 h
- AUC (both sexes, human, plasma, oral, 9 mg, 9 mg QD cohort, Study Day 1, mean, read-out: AUC24): 1410 ng·h/mL
- Cmax (both sexes, human, plasma, oral, 9 mg, 9 mg QD cohort, Study Day 1, mean, read-out: Cmax): 78.4 ng/mL
- Tmax (both sexes, human, plasma, oral, 9 mg, 9 mg QD cohort, Study Day 1, median, read-out: tmax): 4.51 h
- AUC (both sexes, human, plasma, oral, 9 mg, 9 mg QD, Study Day 6, mean, read-out: AUC24): 1570 ng·h/mL
- Cmax (both sexes, human, plasma, oral, 9 mg, 9 mg QD, Study Day 6, mean, read-out: Cmax): 82 ng/mL
- Tmax (both sexes, human, plasma, oral, 9 mg, 9 mg QD, Study Day 6, median, read-out: tmax): 4 h
- AUC (both sexes, human, plasma, oral, 9 mg, 9 mg QD, Study Day 18, mean, read-out: AUCτ): 4600 ng·h/mL
- Cmax (both sexes, human, plasma, oral, 9 mg, 9 mg QD, Study Day 18, mean, read-out: Cmax, ss): 243 ng/mL
- Tmax (both sexes, human, plasma, oral, 9 mg, 9 mg QD, Study Day 18, median, read-out: tmax): 3 h
- AUC (both sexes, human, plasma, oral, Day 18, range over the 0.3 to 9 mg QD dose range, read-out: mean AUCτ): 151 to 4600 ng·h/mL
- concentration at 18 day (both sexes, human, plasma, oral, Day 18, range over the 0.3 to 9 mg QD dose range, read-out: mean Cav,ss): 6.27 to 192 ng/mL
- Cmax (both sexes, human, plasma, oral, Day 18, range over the 0.3 to 9 mg QD dose range, read-out: mean plasma Cmax,ss): 7.86 to 243 ng/mL
- AUC(0-inf) [6]: 133 ng·h/mL
- AUC(0-t) [6]: 118 ng·h/mL
- Vd/F [6]: 121 L
- AUC(0-inf) [7]: 470 ng·h/mL
- AUC(0-t) [7]: 394 ng·h/mL
- Vd/F [7]: 133 L
- AUC(0-inf) [8]: 1870 ng·h/mL
- AUC(0-t) [8]: 1470 ng·h/mL
- Vd/F [8]: 126 L
- AUC(0-inf) [9]: 2330 ng·h/mL
- AUC(0-t) [9]: 1960 ng·h/mL
- Vd/F [9]: 145 L
- AUC(0-inf) [10]: 5760 ng·h/mL
- AUC(0-t) [10]: 4430 ng·h/mL
- Vd/F [10]: 119 L
- Tmax (both sexes, human, plasma, po, 9 mg, oral QD 0.3, 1, 3, 6, 9 mg, range over the dose range, read-out: median tmax): 2.5 to 4 h
- attainment of steady-state (oral QD 0.3-9 mg from Day 6): appeared to reach steady-state on Day 18
